How the values were obtained:
[1] = system: TGFβ/SMAD Singling Pathway SBE reporter cell line; test: TGFβ reporter assay (in vitro small molecule screening); type: cell-based; conditions: SBE luciferase reporter cells, TGFβ stimulation, 18 h, luminescence
Method: TGFβ/SMAD Singling Pathway SBE reporter cell line was obtained from BPS Bioscience. Cells were passed, expanded, and stored in liquid nitrogen as per the supplier's instructions with the exception that growth media is changed to DMEM-C with Geneticin (DMEM supplemented with 10% fetal bovine serum, 1×NEAA, 1 mM Pyruvate, 2 mM glutamine, 50 μg/mL penicillin, 50 U/mL streptomycin and 400 μg/mL of Geneticin). The assay media was MEM supplemented with […] fetal bovine serum, 1×NEAA, 1 mM Pyruvate, 50 μg/mL penicillin and 50 U/mL streptomycin.
Test samples (at desired concentrations diluted in assay media) were added to a 96-well assay plate, 20 μL per well. Reporter cells were harvested from the tissue culture flasks by incubation in small quantity of PBS at 37° C. for two minutes after the media in the flask is removed and cells rinsed with PBS. Cells were counted and diluted in the assay media at approximately 0.5×10^6 cells/mL and then 80 μL/well of cells were added to the assay plate containing the 20 μL/well of test samples (or media only), and incubated for approximately 5-6 hours at 37° C. in a 5% CO2 humidified incubator. After that time, 15 μL of TGFβ diluted to 12 ng/mL in the assay media was added to the plate. Controls included TGFβ titration (from 50 to 0 ng/mL) without inhibitors, and media only (without cells, inhibitor or TGFβ). Plates were incubated at 37° C. in a 5% CO2 humidified incubator for 18 h. Luciferase substrate solution is subsequently added at 100 μL per well, incubated in the dark at room temperature for 15 min, and luminescence is measured using a luminometer. EC50 values and curve fits were obtained using Prism (GraphPad Software).

TGFBR2 = target: T1, TGFBR2 (Homo sapiens, UniProt P37173); test: TGFBR2 RBC enzyme assay (Reaction Biology Corp.); type: biochemical
T1 construct: purchased Reaction Biology Corp
T1 sequence (P37173 23-567): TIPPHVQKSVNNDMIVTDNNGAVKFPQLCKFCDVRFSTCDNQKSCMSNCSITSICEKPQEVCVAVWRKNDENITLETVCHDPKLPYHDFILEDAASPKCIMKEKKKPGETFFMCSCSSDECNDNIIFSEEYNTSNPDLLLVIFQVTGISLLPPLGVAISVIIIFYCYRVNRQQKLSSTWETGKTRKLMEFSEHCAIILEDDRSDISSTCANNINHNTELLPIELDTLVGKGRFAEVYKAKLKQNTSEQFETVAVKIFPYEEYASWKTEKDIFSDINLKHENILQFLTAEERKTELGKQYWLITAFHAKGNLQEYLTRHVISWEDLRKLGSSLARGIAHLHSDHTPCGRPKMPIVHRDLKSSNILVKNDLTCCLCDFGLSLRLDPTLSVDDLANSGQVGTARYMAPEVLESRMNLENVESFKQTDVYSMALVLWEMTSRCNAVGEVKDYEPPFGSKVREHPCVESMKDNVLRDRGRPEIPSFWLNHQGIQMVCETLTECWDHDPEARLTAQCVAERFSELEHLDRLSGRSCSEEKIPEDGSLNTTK
Method: Compounds of the disclosure were assayed by Reaction Biology Corp. using the TGFBR2 RBC enzyme assay.

SMILES	EC50 [1]	EC50 (TGFBR2)
CC1CCN(C)c2ccncc2NC(=O)c2nc(cnc2N)-c2cccc(c2)O1 (stereo not drawn) [Compound 19, 2^5-amino-6,9-dimethyl-10-oxa-4,6-diaza-2(2,6)-pyrazina-5(3,4)-pyridina-1(1,3)-benzenacyclodecaphan-3-one]	0.001 to 1 µM	0.001 to 0.1 µM
CC1OCCN(C)c2ccncc2NC(=O)c2nc(cnc2N)-c2cccc1c2 (stereo not drawn) [Compound 20]	0.001 to 1 µM	0.001 to 0.1 µM
CN1CCCOc2cc(ccc2CCCCN)-c2cnc(N)c(n2)C(=O)Nc2cnccc21 [Compound 62, 2^5-amino-1^4-(4-aminobutyl)-6-methyl-10-oxa-4,6-diaza-2(2,6)-pyrazin-5(3,4)-pyridina-1(1,3)-benzenacyclodecaphan-3-one]	0.001 to 1 µM	0.001 to 0.1 µM
CN1CCCOc2cccc(c2)-c2cnc(N)c(n2)C(=O)Nc2cnccc21 [Compound 6, 2^5-amino-6-methyl-10-oxa-4,6-diaza-2(2,6)-pyrazina-5(3,4)-pyridina-1(1,3)-benzenacyclodecaphan-3-one]	0.001 to 1 µM	0.001 to 0.1 µM
Nc1ncc2nc1C(=O)Nc1cnccc1N1CCC(CC1)COc1cccc-2c1 [Compound 22, 1^5-amino-3-oxa-7-aza-1(2,6)-pyrazina-6(4,3)-pyridina-5(4,1)-piperidina-2(1,3)-benzenacyclooctaphan-8-one]	> 5 µM	> 1 µM
CN1C[C@@H](CNCc2ccccc2)Oc2ccccc2-c2cnc(N)c(n2)C(=O)Nc2cnccc21 [Compound 57, (R)-2^5-amino-8-((benzylamino)methyl)-6-methyl-9-oxa-4,6-diaza-2(2,6)-pyrazin-5(3,4)-pyridina-1(1,2)-benzenacyclononaphan-3-one]	1 to 5 µM	> 1 µM
CC(C)(C)OC(=O)N1C[C@@H]2C[C@@H]1COc1cccc(c1)-c1cnc(N)c(n1)C(=O)Nc1cnccc1O2 (racemic) [Compound 35, (±)-tert-butyl(5^2,5^4-trans)-1^5-amino-9-oxo-3,6-dioxa-8-aza-1(2,6)-pyrazina-7(4,3)-pyridina-5(2,4)-pyrrolidina-2(1,3)-benzenacyclononaphane-51-carboxylate]	> 5 µM	> 1 µM
CN1CCCN(C)c2ccncc2NC(=O)c2nc(cnc2N)-c2ccc(OCCCN)c(c2)C1=O [Compound 54, 2^5-amino-1^4-(3-aminopropoxy)-6,10-dimethyl-4,6,10-triaza-2(2,6)-pyrazina-5(3,4)-pyridina-1(1,3)-benzenacycloundecaphane-3,11-dione]	> 5 µM	
CN1CCCC(=O)Nc2cccc(c2)-c2cnc(N)c(n2)C(=O)Nc2cnccc21 [Compound 28, 2^5-amino-6-methyl-4,6,11-triaza-2(2,6)-pyrazina-5(3,4)-pyridina-1(1,3)-benzenacycloundecaphane-3,10-dione]	> 5 µM	
Nc1ncc2nc1C(=O)Nc1cnccc1O[C@H]1CC[C@H](CC1)Oc1cccc-2c1 [Compound 43, (4^1,4^4-cis)-1^5-amino-3,5-dioxa-7-aza-1(2,6)-pyrazina-6(4,3)-pyridina-2(1,3)-benzena-4(1,4)-cyclohexanacyclooctaphan-8-one]	> 5 µM	> 1 µM
Nc1ncc2nc1C(=O)Nc1cnccc1N1CCC(CCOc3cccc-2c3)C1 (stereo not drawn) [Compound 24, 2^5-amino-9-oxa-4-aza-2(2,6)-pyrazina-5(3,4)-pyridina-6(1,3)-pyrrolidina-1(1,3)-benzenacyclononaphan-3-one]	> 5 µM	
Nc1ncc2nc1C(=O)Nc1cnccc1S(=O)(=O)CCCOc1ccc(Br)c-2c1 [Compound 52, 2^5-amino-1^6-bromo-10-oxa-6-thia-4-aza-2(2,6)-pyrazina-5(3,4)-pyridina-1(1,3)-benzenacyclodecaphan-3-one 6,6-dioxide]	> 5 µM	
CC(C)(C)OC(=O)N1C[C@@H]2C[C@H]1COc1ccncc1NC(=O)c1nc(cnc1N)-c1cccc(c1)O2 (racemic) [Compound 41, (±)-tert-butyl(4^3,4^5-cis)-1^5-amino-9-oxo-3,6-dioxa-8-aza-1(2,6)-pyrazina-7(4,3)-pyridina-4(3,5)-pyrrolidina-2(1,3)-benzenacyclononaphane-41-carboxylate]	0.001 to 1 µM	
